Columns and labels:
[1] = species: Mus musculus; test: Cytotoxicity against Balb/c mouse T cells assessed as decrease in cell viability at 1 uM after 48 hrs by MTT assay; format: toxicity, cell-based
[2] = species: Mus musculus; test: Cytotoxicity against Balb/c mouse B cells assessed as decrease in cell viability at 1 uM after 48 hrs by MTT assay; format: toxicity, cell-based
[3] = system: B; test: Immunosuppressive activity in Balb/c mouse B cells assessed as inhibition of LPS-induced cell proliferation after 48 hrs by MTT assay relative to control; format: functional, cell-based
[4] = species: Mus musculus; test: Cytotoxicity against Balb/c mouse B cells assessed as decrease in cell viability at 10 uM after 48 hrs by MTT assay; format: toxicity, cell-based
[5] = Immunosuppressive activity in Balb/c mouse B cells assessed as inhibition of LPS-induced cell proliferation at 1 uM after 48 hrs by MTT assay relative to control; format: functional
[6] = Immunosuppressive activity in Balb/c mouse B cells assessed as inhibition of LPS-induced cell proliferation at 100 uM after 48 hrs by MTT assay relative to control; format: functional
[7] = Immunosuppressive activity in Balb/c mouse B cells assessed as inhibition of LPS-induced cell proliferation at 10 uM after 48 hrs by MTT assay relative to control; format: functional
[8] = Immunosuppressive activity in Balb/c mouse T cells assessed as inhibition of ConA-induced cell proliferation at 10 uM after 48 hrs by MTT assay relative to control; format: functional
[9] = system: T-cell; test: Immunosuppressive activity in Balb/c mouse T cells assessed as inhibition of ConA-induced cell proliferation after 48 hrs by MTT assay relative to control; format: functional, cell-based
[10] = Immunosuppressive activity in Balb/c mouse T cells assessed as inhibition of ConA-induced cell proliferation at 1 uM after 48 hrs by MTT assay relative to control; format: functional
[11] = species: Mus musculus; test: Cytotoxicity against Balb/c mouse T cells assessed as decrease in cell viability at 100 uM after 48 hrs by MTT assay; format: toxicity, cell-based
[12] = species: Mus musculus; test: Cytotoxicity against Balb/c mouse B cells assessed as decrease in cell viability at 100 uM after 48 hrs by MTT assay; format: toxicity, cell-based
[13] = species: Mus musculus; test: Cytotoxicity against Balb/c mouse T cells assessed as decrease in cell viability at 10 uM after 48 hrs by MTT assay; format: toxicity, cell-based
[14] = Immunosuppressive activity in Balb/c mouse T cells assessed as inhibition of ConA-induced cell proliferation at 100 uM after 48 hrs by MTT assay relative to control; format: functional

Row | SMILES | Activity [1] | Activity [2] | inhibition [3] | Activity [4] | inhibition at 1 µM [5] | inhibition at 100 µM [6] | inhibition at 10 µM [7] | inhibition at 10 µM [8] | inhibition [9] | inhibition at 1 µM [10] | Activity [11] | Activity [12] | Activity [13] | inhibition at 100 µM [14]
1 | CC(=O)Oc1cc(C)c2c(c1C)C[C@H]([C@@H](C)C(=O)OCc1cn(Cc3ccccc3)nn1)CC2 | Non-Toxic | Non-Toxic | Dose-dependent effect | Non-Toxic | 48.6% | 32.3% | 33.5% | 39.2% | Dose-dependent effect | 33% | Toxic | Toxic | Non-Toxic | 44%
2 | CC(=O)Oc1cc(C)c2c(c1C)C[C@H]([C@@H](C)C(=O)OCc1cn(-c3ccc(C#N)cc3)nn1)CC2 | Toxic | Toxic | Dose-dependent effect | Toxic | 76.3% | 67.9% | 80.9% | 52.3% | Dose-dependent effect | 35.6% | Toxic | Toxic | Toxic | 59.8%
3 | COc1ccccc1-n1cc(COC(=O)[C@H](C)[C@@H]2CCc3c(C)cc(OC(C)=O)c(C)c3C2)nn1 | Toxic | Toxic | Dose-dependent effect | Non-Toxic | 27.5% | 6.59% | 32.4% | 33.1% | Dose-dependent effect | 8.08% | Non-Toxic | Non-Toxic | Non-Toxic | 29.4%
4 | CCCCn1cc(COC(=O)[C@H](C)[C@@H]2CCc3c(C)cc(OC(C)=O)c(C)c3C2)nn1 | Non-Toxic | Non-Toxic | Dose-dependent effect | Toxic | 31.2% | 44.2% | 29.9% | 24% | Dose-dependent effect | 21.4% | Toxic | Toxic | Toxic | 41.3%
5 | COc1ccc(-n2cc(COC(=O)[C@H](C)[C@@H]3CCc4c(C)cc(OC(C)=O)c(C)c4C3)nn2)cc1 | Toxic | Toxic | Dose-dependent effect | Non-Toxic | 42.3% | 15.4% | 36.8% | 36% | Dose-dependent effect | 33.8% | Toxic | Toxic | Non-Toxic | 30.1%
6 | CC(=O)Oc1cc(C)c2c(c1C)C[C@H]([C@@H](C)C(=O)OCc1cn(-c3ccccc3Cl)nn1)CC2 | Toxic | Toxic | Dose-dependent effect | Toxic | 33.7% | 37.7% | 30.3% | 17.6% | Dose-dependent effect | 5.55% | Toxic | Toxic | Toxic | 30.6%
7 | CC(=O)Oc1cc(C)c2c(c1C)C[C@H]([C@@H](C)C(=O)OCc1cn(-c3ccc(C(=O)c4ccccc4)cc3)nn1)CC2 | Non-Toxic | Non-Toxic | Dose-dependent effect | Toxic | 69.3% | 81.2% | 75% | 28% | Dose-dependent effect | 5.33% | Toxic | Toxic | Toxic | 20%
8 | CC(=O)Oc1cc(C)c2c(c1C)C[C@H]([C@@H](C)C(=O)OCc1cn(-c3cc(I)ccc3C)nn1)CC2 | Non-Toxic | Non-Toxic | Dose-dependent effect | Toxic | 39% | 28% | 34.6% | 38.2% | Dose-dependent effect | 34.5% | Toxic | Toxic | Toxic | 26.5%
9 | CC(=O)Oc1cc(C)c2c(c1C)C[C@H]([C@@H](C)C(=O)OCc1cn(-c3cccnc3Cl)nn1)CC2 | Toxic | Toxic | Dose-dependent effect | Toxic | 30.8% | 22.5% | 15.4% | 25% | Dose-dependent effect | 5.88% | Non-Toxic | Non-Toxic | Toxic | 17.6%
10 | CC(=O)Oc1cc(C)c2c(c1C)C[C@H]([C@@H](C)C(=O)OCc1cn(-c3ccccc3CO)nn1)CC2 | Toxic | Toxic | Dose-dependent effect | Toxic | 60.3% | 53.4% | 64.1% | 32.6% | Dose-dependent effect | 17.4% | Toxic | Toxic | Toxic | 81.1%
11 | CCCCCn1cc(COC(=O)[C@H](C)[C@@H]2CCc3c(C)cc(OC(C)=O)c(C)c3C2)nn1 | Toxic | Toxic | Dose-dependent effect | Toxic | 42.4% | 43.1% | 41.9% | 27.6% | Dose-dependent effect | 15.6% | Toxic | Toxic | Toxic | 30.6%
12 | C#CCOC(=O)[C@H](C)[C@@H]1CCc2c(C)cc(OC(C)=O)c(C)c2C1 | Non-Toxic | Non-Toxic | Dose-dependent effect | Toxic | 57.8% | 69.7% | 59.3% | 51.2% | Dose-dependent effect | 41.7% | Non-Toxic | Non-Toxic | Toxic | 71.5%
13 | COc1cc(-n2cc(COC(=O)[C@H](C)[C@@H]3CCc4c(C)cc(OC(C)=O)c(C)c4C3)nn2)cc(OC)c1OC | Toxic | Toxic | Dose-dependent effect | Toxic | 42% | 89.3% | 22.1% | 37.1% | Dose-dependent effect | 45.5% | Non-Toxic | Non-Toxic | Toxic | 83.3%
14 | CC(=O)Oc1cc(C)c2c(c1C)C[C@H]([C@@H](C)C(=O)OCc1cn(-c3ccc(O)cc3)nn1)CC2 | Non-Toxic | Non-Toxic | Dose-dependent effect | Toxic | 36.6% | 29.7% | 26.3% | 5.55% | Dose-dependent effect | 33.3% | Toxic | Toxic | Toxic | 17.6%
15 | CC(=O)Oc1cc(C)c2c(c1C)C[C@H]([C@@H](C)C(=O)OCc1cn(-c3ccc(NC(=O)c4ccccc4)cc3)nn1)CC2 | Non-Toxic | Non-Toxic | Dose-dependent effect | Toxic | 36.8% | 19.2% | 35.2% | 30.9% | Dose-dependent effect | 7.35% | Non-Toxic | Non-Toxic | Toxic | 38.2%
